Test results reported in patent publication US11220689B2, “Modulators of telomere disease” (Children's Medical Center Corporation, priority 2015, dated 2022).

Legend:
recombinant PAPD5 = recombinant PAPD5 (Homo sapiens, UniProt Q8NDF8); assay: Inhibition of recombinant PAPD5 by aminoglycosides; format: biochemical; conditions: 10 μM each; FIG. 26
Description: FIG. 26 is a graph showing inhibition of recombinant PAPD5 by aminoglycosides.
Experiments were performed to determine whether aminoglycosides can be used to inhibit PAPD5. 10 μM each of the following are used, (1) Kanamycin B sulfate; (2) Apramycin sulfate; (3) Spectinomycin dihydrochloride pentahydrate; and (4) Ribostamycin sulfate.

human TRF4-2 = assay: Lentiviral shRNA knockdown of TRF4-2 (PAPD5) in fibroblasts and patient-derived cells; format: cell-based
Description: Short-hairpin RNA (shRNA) constructs. Duplex oligonucleotides encoding shRNA targeting human TRF4-2 (ENA accession number: FR872509) and human PARN (NM_002582) or luciferase control (Table 6) were cloned into the pLKO.1-puro vector (Addgene #10878), and pLKO.1-blast vector (Addgene #26655). Lentiviral vector production and transduction of cells.
Lentiviral vectors encoding shRNAs were produced by co-transfection of 293 cells with lentiviral plasmids described above, pCMV_dR8.91 and pCMV_VSV-G, using branched polyethylenimine (Sigma). Supernatants were harvested, filtered and frozen in aliquots on days 3-4 following transfection. For knockdown experiments, cells were transduced with lentivirus and harvested 6 days after selection in puromycin (2 μg/ml for 293 cells; 0.2 μg/ml for iPS cells) or blasticidin (10 μg/ml for 293 cells).

human PAPD5 = assay: PAPD5 shRNA knockdown in PARN deficient HEK 293 cells: 3' RACE deep sequencing and Northern blot of TERC; format: cell-based; conditions: Northern blot, normal and PARN deficient HEK 293 cells, FIG. 11G, FIG. 18
Description: short-hairpin RNA (shRNA) constructs. Duplex oligonucleotides encoding shRNA targeting human PAPD5 (ENA accession: FR872509) or luciferase control (Table 13) were cloned into the pLKO.1-puro vector and pLKO.1-blast vectors (Addgene #10878 and #26655). shRNA constructs targeting human PARN (NM_002582) were as described, e.g., in Moon, Diane H., et al. “Poly (A)-specific ribonuclease (PARN) mediates 3 [prime]-end maturation of the telomerase RNA component.” Nature genetics 47.12 (2015): 1482-1488.
Viral vector production and transduction. […]. Lentiviral particles were produced by co-transfection of HEK 293T cells with lentiviral vectors, pCMV_dR8.91 and pCMV_VSV-G. For knockdown and overexpression experiments, HEK 293 cells, fibroblasts and iPSCs were transduced with viral vectors in the presence of protamine sulfate (10 μg/ml) for 8-12 hours. For TERC and DKC1 experiments, transduced HEK 293 cells and fibroblasts were sorted for mCherry or EGFP expression and cultured without further selection. […]
Formaldehyde/agarose gel electrophoresis. […] Quantification was performed using ImageJ. […]
TERC RNA 3′ ends were profiled as described in e.g., Moon, Diane H., et al. “Poly (A)-specific ribonuclease (PARN) mediates 3 [prime]-end maturation of the telomerase RNA component.” Nature genetics 47.12 (2015): 1482-1488. […] Reads mapping to the TERC gene were analyzed using custom developed Perl scripts.

PARN = assay: CRISPR/Cas9 genome targeting of PARN in normal (WT) iPSCs, lentiviral gRNA; format: cell-based, human
Description: (§1) Experiments were performed to determine the requirement of PARN and PAPD5 for viability and function of human stem cells. CRISPR/Cas9 genome targeting was performed to create biallelic null mutations. Lentiviral vectors containing guide RNAs (gRNAs; Table 15) to PARN or PAPD5 were designed and used to transduce normal (WT) and PARN mutant induced pluripotent stems (iPSCs), and the frequency of insertion/deletions (indels) were assessed. […] Populations of stable lentiviral transduced PARN or PAPD5 targeted iPSCs were subcloned to identify lines with biallelic inactivation of PARN or PAPD5. […] In contrast, iPSCs with indels causing frameshifts in PAPD5 and lacking PAPD5 protein could be isolated (FIG. 23). Inactivation of PAPD5 by CRISPR/Cas9 augmented TERC levels in iPSC clones (FIG. 24).

human PARN = assay: PARN shRNA knockdown in 293 cells: 3' RACE and deep sequencing of TERC 3' ends; format: cell-based; conditions: versus control shRNA, FIG. 8
Description: 600 ng of total RNA was ligated to 5 μM of 5′-adenylated, 3′-blocked adapter (Universal miRNA cloning linker, New England Biolabs, Ipswich, Mass.) with 280 units of T4 RNA ligase truncated KQ (New England Biolabs, Ipswich, Mass.), 25% PEG 8000, and 1 μl RNaseOUT (Life Technologies, Carlsbad, Calif.) in a 20 μl reaction at 25 degrees C. for 16-24 hr. After cleanup with RNA Clean and Concentrator columns (Zymo Research, Irvine, Calif.), followed by DNase treatment, cDNA was synthesized with 5 pmol of universal RT primer and SuperScript III. […] PCR products were directly analyzed run on 2.5% agarose gels to visualize mature and extended TERC transcripts, or subject to Qiaquick PCR purification columns (Qiagen, Hilden, Germany) for library preparation for deep sequencing. […]
RACE products were prepared for deep sequencing using the TruSeq Nano DNA LT Library Prep Kit (Illumina, San Diego, Calif.). […] The quality and quantity of each library was determined on an Advanced Analytical Fragment Analyzer. […] The reads were de-multiplexed with CASAVA 1.8.2 and the read 1 and read 2 fastq files for each sample were generated. For data analysis, the Illumina adapter sequence was first removed from the end of each read using Trimmomatic50. […] The joined-reads from each sample were then mapped to the TERC gene (NR_001566; SEQ ID NO: 99) with the Bowtie2 mapper52, and outputted to a SAM file. […]

PAPD5 = assay: CRISPR/Cas9 genome targeting of PAPD5 in PARN mutant iPSCs, lentiviral gRNA; format: cell-based, human
Description: as §1

Chain of recombinant PAPD5 (Q8NDF8 whole entry): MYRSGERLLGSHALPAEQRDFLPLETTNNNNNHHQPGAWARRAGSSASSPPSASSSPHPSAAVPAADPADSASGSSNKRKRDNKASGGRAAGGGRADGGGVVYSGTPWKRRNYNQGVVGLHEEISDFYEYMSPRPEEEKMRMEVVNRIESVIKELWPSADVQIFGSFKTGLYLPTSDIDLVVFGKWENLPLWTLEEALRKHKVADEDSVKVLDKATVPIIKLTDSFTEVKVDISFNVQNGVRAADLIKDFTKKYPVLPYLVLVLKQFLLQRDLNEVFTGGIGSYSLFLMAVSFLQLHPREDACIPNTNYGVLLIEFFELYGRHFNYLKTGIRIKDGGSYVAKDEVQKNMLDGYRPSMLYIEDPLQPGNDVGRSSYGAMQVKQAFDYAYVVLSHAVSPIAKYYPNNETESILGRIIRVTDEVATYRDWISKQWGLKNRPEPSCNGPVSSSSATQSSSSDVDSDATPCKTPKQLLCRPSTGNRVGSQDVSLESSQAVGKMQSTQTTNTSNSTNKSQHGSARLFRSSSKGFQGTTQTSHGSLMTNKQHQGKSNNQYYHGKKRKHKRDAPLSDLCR

NC[C@H]1O[C@H](O[C@H]2[C@H](O)[C@@H](O[C@H]3O[C@H](CO)[C@@H](O)[C@H](N)[C@H]3O)[C@H](N)C[C@@H]2N)[C@H](N)[C@@H](O)[C@@H]1O.O=S(=O)(O)O [Kanamycin B sulfate]
inhibition of PAPD5 (recombinant PAPD5): can inhibit PAPD5

NC[C@H]1O[C@H](O[C@H]2[C@H](O[C@@H]3O[C@H](CO)[C@@H](O)[C@H]3O)[C@@H](O)[C@H](N)C[C@@H]2N)[C@H](N)[C@@H](O)[C@@H]1O.O=S(=O)(O)O [Ribostamycin sulfate]
inhibition of PAPD5 (recombinant PAPD5): can inhibit PAPD5

CN[C@@H]1[C@H](O)[C@H](NC)[C@H]2O[C@@]3(O)C(=O)C[C@@H](C)O[C@H]3O[C@@H]2[C@H]1O.Cl.Cl.O.O.O.O.O [Spectinomycin dihydrochloride pentahydrate]
inhibition of PAPD5 (recombinant PAPD5): can inhibit PAPD5

Apramycin sulfate
inhibition of PAPD5 (recombinant PAPD5): can inhibit PAPD5

PAPD5 shRNA1: lentivirus-encoded shRNA targeting human PAPD5, SEQ ID NO: 83 in Table 13 (CCGGCGATGTTGGAAGGAGTTCATACTCGAGTATGAACTCCTTCCAACATCGTTTTTG)
TERC levels (human TRF4-2): restored the TERC levels | knock-down of PAPD5 (human TRF4-2): knocked-down PAPD5 to significant levels | steady state levels of TERC transcripts (human PAPD5): increased

PAPD5 shRNA2: lentivirus-encoded shRNA targeting human PAPD5, SEQ ID NO: 79 in Table 13 (CCGGGCCACATATAGAGATTGGATACTCGAGTATCCAATCTCTATATGTGGCTTTTTG)
TERC levels (human TRF4-2): restored the TERC levels | knock-down of PAPD5 (human TRF4-2): knocked-down PAPD5 to significant levels | steady state levels of TERC transcripts (human PAPD5): increased

PARN gRNA 91: guide RNA targeting PARN for CRISPR/Cas9, SEQ ID NO: 94 (target + PAM), 95 (guide TGAAGTGTTAGGAGATACAT; listed as DNA, chemistry not given here)
frequency of insertion/deletions (indels) (PARN): high frequency of indels | PARN RNA transcript levels (PARN; qPCR, FIG. 20A): reductions | TERC RNA levels (PARN; qPCR, FIG. 20B): reductions

PARN shRNA1: lentivirus-encoded shRNA directed against PARN (3' untranslated region), SEQ ID NO: 74 (DNA CCGGCCGCACTGTATTTAACTTAATCTCGAGATTAAGTTAAATACAGTGCGGTTTTTG)
levels of mature TERC (human PARN): diminished levels of mature TERC | oligo(A) forms of TERC (human PARN): increased oligo(A) forms

gRNA 451: guide RNA targeting PAPD5 for CRISPR/Cas9, SEQ ID NO: 88 (target + PAM), 89 (guide CCTCTTGTTGCTGCTGCCCG; listed as DNA, chemistry not given here)
frequency of insertion/deletions (indels) (PAPD5; PAPD5 gRNAs): highest frequency of indels | PAPD5 transcript levels (PAPD5; PARN mutant cells, qPCR, FIG. 21A): reductions | TERC RNA levels (PAPD5; PARN mutant cells, qPCR, FIG. 21B): increases
